Test results from US5432172A, “Biological applications of alkaloids derived from the tunicate Eudistoma sp” (The Research Foundation of State University of New York, priority 1993, dated 1995).
Like-named read-outs stand apart in the source and are kept apart here.

Legend:
[1] = system: neuroblastoma N1E-115 cells; assay: Growth and morphological differentiation of mouse neuroblastoma N1E-115 cells; settings: for range of effective concentrations that inhibited cell proliferation and induced morphological differentiation / effects on cell appearance: N1E-115 cells; for range of effective concentrations that inhibited cell proliferation and induced morphological differentiation: below range no noticeable effect, above range cytotoxic; for effects on cell appearance: morphology; for most effective concentration for the cells tested: summary, cells tested in the present invention
Experimental: A,B: Untreated cells, 3 (A) and 8 (B) days after subculture. C,D: Cells grown for 3 (C) and 8 (D) days with 12.8 μM Debromoshermilamine. E,F: Cells grown for 7 days with Isosegoline A (39 μM) and Norsegoline (16.3 μM), respectively.
A,B: Untreated cells 3 (A) and 6 (B) days after subculture. C,D: Cells grown for 3 (C) and 6 (D) days with 50 μM forskolin. E,F: Cells grown for 3 (E) and 6 (F) days with 39 μM Segoline A. G,H: Cells grown for 3 (G) and 6 (H) days with 0.14 μM Eilatin.
Cells were grown for six days in the absence of drugs (A), or in the presence of: 10 μM 4-methylpyrido[2,3,4-kl]acridine (B), 4 μM pyrido[2,3,4-kl]acridine (C), 0.08 μM Eilatin (D), 75 μM forskolin (E).
The inventors chose the neuroblastoma N1E-115 cells because these tumor-derived cells can be induced to express characteristic neuronal properties by a variety of procedures see Spector, "Electrophysiology of clonal nerve cell lines. In: Excitable Cells in Tissue Culture", Nelson et al. eds., Plenum, New York 247-277 (1981) and can serve as a useful experimental system in which to explore the effects of the Eudistoma alkaloids on the biological properties of both cancer cells and neuronal cells.
The N1E-115 cells were exposed to various concentrations of the six (6) natural products shown in FIG. 1, and of the two synthetic pyridoacridines shown in Scheme III of FIG. 2. […] A,B: Untreated cells, 3 (A) and 8 (B) days after subculture. C,D: Cells grown for 3 (C) and (8) days with 12.8 μM Debromoshermilamine. E,F: Cells grown for 7 days with Isosegoline A (39 μM) and Norsegoline (16.3 μM), respectively. FIG. 5 illustrates the appearance of N1E-115 cells 6 days after replating in the absence (A) and in the presence of 10 μM 4-methylpyrido[2,3,4-kl]acridine (B), or 4 μM pyrido[2,3,4-kl]acridine.

[2] = system: pyruvate kinase; assay: Pyruvate kinase activity in cultured rat hepatoma FAO cells; type: cell-based; settings: for Km: control 0.14, read-out: Km for the substrate phosphoenolpyruvate (PEP); for inhibition of pyruvate kinase activity: submaximal substrate concentrations; for rise in the Km for substrate (phosphoenolpyruvate): versus control
Experimental: FIG. 11 is a graph showing the effects of the Eudistoma alkaloids on pyruvate kinase activity in cultured rat hepatoma FAO cells. Enzyme activity v/Vmax was assayed as described in Example IV in partially purified extracts from cells incubated for 1 h in the absence ( ) or presence of 100 μM CPT-cAMP (.cndot.) and 26 μM segoline A ( ) as a function of substrate concentrations (phosphoenolpyruvate, PEP).
1. Activity of pyruvate kinase--a key glycolytic enzyme whose activity is inhibited by cAMP-dependent phosphorylation.
FIG. 11 is a graph showing the effects of the Eudistoma alkaloids on pyruvate kinase activity in cultured rat hepatoma FAO cells. Enzyme activity v/Vmax was assayed in partially purified extracts from cells incubated for 1 h in the absence (squares) or presence of 100 μM 8-(4-chlorophenylthio) cyclic AMP (CPT-cAMP)-CPT-cAMP (circles) and 26 μM Segoline A (triangles) as a function of substrate concentrations (phosphoenolpyruvate, PEP).

[3] = system: PEPCK mRNA; assay: Levels of PEPCK mRNA in FTO-2B rat hepatoma cells (Northern blot); type: cell-based; settings: segoline A 5, 26 and 52 μM; Debromoshermilamine 2.6, 12.8 and 38.4 μM; 4 hours
Experimental: FIG. 12 is a graph showing the effects of Eudistoma alkaloids on levels of PEPCK mRNA in FTO-2B rat hepatoma cells. The cells were exposed for 4 hours to serum-free medium which contained: 5 μM CPT-cAMP (lane 1), 5, 26 and 52 μM segoline A (lanes 2-4), 2.6, 12.8 and 38.4 μM Debromoshermilamine (lanes 5-7) or to serum-free medium alone (lane 8).
2. Induction of mRNA for P-enolpyruvate carboxykinase (PEPCK)--a key enzyme in the gluconeogenesis pathway in liver and kidney cells whose gene transcription rate is stimulated by cAMP see Hod et al., N.Y. Acad. Sci., 478, 31-45 (1986) and Hod et an., J. Biol. Chem., 263, 7747-7752 (1988).
FIG. 12 is a graph showing the effects of Eudistoma alkaloids on levels of PEPCK mRNA in FTO-2B rat hepatoma cells. The cells were exposed to medium which contained: 5 μM 8-CPT-cAMP, 5, 26 and 52 μM Segoline A, 2.6, 12.8 and 38.4 μM Debromoshermilamine or to control medium. The level of mRNA was determined by Northern blot analysis according to Hod et al., J. Biol. Chem., 259, 15603-15608 (1984) using the plasmid pPCK10rc as a hybridization probe, and quantified by densitometric scanning of the autoradiograms which is shown on the left.

[4] = system: normal hamster fibroblast NIL8 cell line; assay: Growth and morphology of normal NIL8 fibroblast cells; type: cell-based; settings: 12.8 μM Debromoshermilamine, 5 days, single application
Experimental: Cells were grown for 5 days in the absence of drugs (A), and in the presence of 25 μM forskolin (B), 1.4 μM Eilatin (C), or 12.8 μM Debromoshermilamine (D). […]
As illustrated, a single application of 1.4 μM Eilatin or 12.8 μM Debromoshermilamine to NIL8 cells produced effects which are strikingly similar to those obtained by chronically treating time cells with agents that elevate or mimic cAMP. […] This predilection towards cancer cells is a very desirable property in developing potential drugs for the treatment of cancer.

[5] = system: rat anterior pituitary cells; assay: Secretion of growth hormone (GH) from dispersed rat anterior pituitary cells; type: cell-based; settings: 3 h; increasing concentrations
Source text: FIG. 13 is a graph showing the effects of Debromoshermilamine on the secretion of growth hormone (GH) from dispersed rat anterior pituitary cells. Each bar represents the mean ±s.e.m of four wells.
3. Growth hormone release from anterior pituitary cells which is stimulated by a number of hormonal factors that activate the adenylyl cyclase system and elevate cellular cAMP levels, see, Bilezikjian et al., Endocrinology, 113, 1726-1731 (1983); Ray et al., Mol. Cell. Endocrinology, 45, 175-182 (1986) and Gabriel et al., Neuroendocrinology, 50 170-176 (1989).
FIG. 13 is a graph showing the effects of debromoshermilamine on the secretion of growth hormone (GH) from dispersed rat anterior pituitary cells. Cells grown in 24-well multiwell plates were incubated for 3 h in fresh medium (DME) in the absence (control) or presence of 1 mM DbcAMP, and increasing concentrations of Debromoshermilamine as indicated. Hormone secretion was measured using rat GH radioimmunoassay. Each bar represents the mean ±s.e.m of four wells.

Compound	effect on cell division and morphological differentiation ([1]; 39 μM Segoline A, 3 days, single application)	long-term effect on cell division ([1]; 39 μM Segoline A, 6 days, single application)	range of effective concentrations that inhibited cell proliferation and induced morphological differentiation [1]	effects on cell appearance [1]	most effective concentration for the cells tested [1]	Km ([2]; 26 μM segoline A, 1 h)	inhibition of pyruvate kinase activity [2]	rise in the Km for substrate (phosphoenolpyruvate) [2]	induction of PEPCK mRNA [3]	effect on cell shape of NIL8 cells [4]	effect on growth of NIL8 cells [4]	Km ([2]; concentration of alkaloid not given)	growth hormone release [5]
COc1cc2c3c4c(ccnc14)-c1ccccc1N3C1(C)C(=O)NC(=O)C2C1C (stereo not shown) [Segoline A]	inhibited cell division and induced morphological differentiation	cell division is completely blocked	12-52 μM	flattened cell bodies as well as numerous long neurites	12 to 52 µM	440 µM	inhibit pyruvate kinase activity	ca. 3 fold	stimulate the induction of PEPCK mRNA in a dose-dependent manner	–	–	–	–
CC(=O)NCCc1c2c(c3nccc4c3c1Nc1ccccc1-4)NC(=O)CS2 [Debromoshermilamine]	–	–	6-32 μM	a large proportion of very flat cells of considerable size and relatively few neurites	6 to 32 µM	–	inhibit pyruvate kinase activity	ca. 3 fold	stimulate the induction of PEPCK mRNA in a dose-dependent manner	flatter	growth was inhibited	460 µM	stimulate growth hormone release, again, in a dose-dependent manner
